According to US9833497B2, “Human originated EGF domain proteins and use of the same” (CHENGDU SOURCEBIO LIMITED-LIABILITY COMPANY, priority 2013, dated 2017):

What was measured:
Type in all cases: cell-based
[1] = system: E. coli DH5α; assay: Antibacterial activity: MIC and growth curve against E. coli DH5α in 96-well plate; conditions: minimal inhibitory concentration against E. coli DH5α; 96-well plate, 5×10^5 CFU/mL, 37° C., judged after 8 h
Summary of the method: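 Log-phase bacteria (OD600 ~0.5) resuspended in LB at 5×10^5 CFU/mL, exposed to recombinant protein at 50, 25, 12.5 μg/mL final in triplicate, 37 °C shaking at 175 rpm. OD600 read every 30 min; MIC is lowest concentration showing no growth.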

[2] = system: E. coli BL21; assay: MIC against Gram-negative bacteria: E. coli BL21; conditions: for MIC against E. coli BL21 / MIC: 10 h cultivation at 37° C., E. coli BL21
Summary of the method: (§1)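 Two-fold serial dilutions of each purified human EGF domain protein, three replicate wells per level, were combined with bacteria at a final 5×10^5 CFU/mL in LB. Cultures were shaken at 175 rpm, 37° C. The MIC was taken as the minimum concentration preventing growth.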

[3] = system: Pseudomonas aeruginosa; assay: MIC against Gram-negative bacteria: Pseudomonas aeruginosa; conditions: for MIC against P. aeruginosa: Pseudomonas aeruginosa; for MIC against P. aeruginosa / MIC: 10 h cultivation at 37° C.; for MIC: P. aeruginosa
Summary of the method: as §1

[4] = system: Klebsiella pneumonia; assay: MIC against Gram-negative bacteria: Klebsiella pneumonia; conditions: for MIC against K. pneumonia: Klebsiella pneumonia; for MIC against K. pneumonia / MIC: 10 h cultivation at 37° C.; for MIC: K. pneumonia
Summary of the method: as §1

[5] = system: Enterobacter cloacae; assay: MIC against Gram-negative bacteria: Enterobacter cloacae; conditions: for MIC against E. cloacae: Enterobacter cloacae; for MIC against E. cloacae / MIC: 10 h cultivation at 37° C.; for MIC: E. cloacae
Summary of the method: as §1

[6] = system: Aeromonas hydrophila; assay: MIC against Gram-negative bacteria: Aeromonas hydrophila; conditions: for MIC against A. hydrophila: Aeromonas hydrophila; for MIC against A. hydrophila / MIC: 10 h cultivation at 37° C.; for MIC: A. hydrophila
Summary of the method: as §1

[7] = system: Citrobacter diversus; assay: MIC against Gram-negative bacteria: Citrobacter diversus; conditions: for MIC against C. diversus: Citrobacter diversus; for MIC against C. diversus / MIC: 10 h cultivation at 37° C.; for MIC: C. diversus
Summary of the method: as §1

[8] = system: Moraxella catarrhalis; assay: MIC against Gram-negative bacteria: Moraxella catarrhalis; conditions: for MIC against M. catarrhalis: Moraxella catarrhalis; for MIC against M. catarrhalis / MIC: 10 h cultivation at 37° C.; for MIC: M. catarrhalis
Summary of the method: as §1

[9] = system: Proteus mirabilis; assay: MIC against Gram-negative bacteria: Proteus mirabilis; conditions: for MIC against P. mirabilis: Proteus mirabilis; for MIC against P. mirabilis / MIC: 10 h cultivation at 37° C.; for MIC: P. mirabilis
Summary of the method: as §1

[10] = system: Proteus vulgaris; assay: MIC against Gram-negative bacteria: Proteus vulgaris; conditions: for MIC against P. vulgaris: Proteus vulgaris; for MIC against P. vulgaris / MIC: 10 h cultivation at 37° C.; for MIC: P. vulgaris
Summary of the method: as §1

[11] = system: Serratia marcescens; assay: MIC against Gram-negative bacteria: Serratia marcescens; conditions: for MIC against S. marcescens: Serratia marcescens; for MIC against S. marcescens / MIC: 10 h cultivation at 37° C.; for MIC: S. marcescens
Summary of the method: as §1

[12] = 96-well plate, 5×10^5 CFU/mL, 37° C., 10 h

With “PRT631 (CSCHPQGSVSEQMPCDPVTGQCSCLPHVTARDCSRCYPGFFDLQPGRGCRS; listed as Homo sapiens)” as the substance, how does the MIC [1] read?
The MIC was 25 µg/mL.

What about the “MIC E. coli BL21” value [2, 12] of the same substance?
The value was 12.5 µg/mL.

What about the “MIC P. aeruginosa” value [3, 12] of the same substance?
The value was 25 µg/mL.

What about the “MIC K. pneumonia” value [4, 12] of the same substance?
The value was 12.5 µg/mL.

What about the “MIC E. cloacae” value [5, 12] of the same substance?
The value was 25 µg/mL.

What about the “MIC A. hydrophila” value [6, 12] of the same substance?
The value was 12.5 µg/mL.

What about the “MIC C. diversus” value [7, 12] of the same substance?
The value was 25 µg/mL.

And the “MIC M. catarrhalis” value [8, 12]?
Its value is 12.5 µg/mL.

What about the “MIC P. mirabilis” value [9, 12] of the same substance?
The value was 25 µg/mL.

And the “MIC P. vulgaris” value [10, 12]?
The value was 12.5 µg/mL.

What about the “MIC S. marcescens” value [11, 12] of the same substance?
The value was 25 µg/mL.

With “PRT1414 (EVDCMDPTCSGRGVCVRGECHCSVGWGGTNCE; listed as Homo sapiens)” as the substance, how does the MIC [1] read?
The MIC was 50 µg/mL.

And the “MIC against E. coli BL21” value ([2]; 5×10^5 CFU/mL)?
Its value is 12.5 µg/mL.

And the “MIC against P. aeruginosa” value ([3]; 5×10^5 CFU/mL)?
The value was 50 µg/mL.

And the “MIC against K. pneumonia” value ([4]; 5×10^5 CFU/mL)?
Its value is 12.5 µg/mL.

What about the “MIC against E. cloacae” value ([5]; 5×10^5 CFU/mL) of the same substance?
The value was 50 µg/mL.

And the “MIC against A. hydrophila” value ([6]; 5×10^5 CFU/mL)?
Its value is 12.5 µg/mL.

And the “MIC against C. diversus” value ([7]; 5×10^5 CFU/mL)?
The value was 12.5 µg/mL.

And the “MIC against M. catarrhalis” value ([8]; 5×10^5 CFU/mL)?
The value was 50 µg/mL.

What about the “MIC against P. mirabilis” value ([9]; 5×10^5 CFU/mL) of the same substance?
Its value is 12.5 µg/mL.

What about the “MIC against P. vulgaris” value ([10]; 5×10^5 CFU/mL) of the same substance?
The value was 12.5 µg/mL.

What about the “MIC against S. marcescens” value ([11]; 5×10^5 CFU/mL) of the same substance?
The value was 25 µg/mL.

What does the source list for “PRT1009 (DVDECLDQPCHPTGTAACHSLANAFYCQCLPGHTGQWCE; listed as Homo sapiens)”?
MIC [1]: 25 µg/mL; MIC [2]: 12.5 µg/mL; MIC [3]: 50 µg/mL; MIC [4]: 12.5 µg/mL; MIC [5]: 50 µg/mL; MIC [6]: 25 µg/mL; MIC [7]: 12.5 µg/mL; MIC [8]: 25 µg/mL; MIC [9]: 50 µg/mL; MIC [10]: 25 µg/mL; MIC [11]: 100 µg/mL

For “PRT1017 (NPDNCVSHQCQNGGTCQDGLDTYTCLCPETWTGWDCS; listed as Homo sapiens)”, which MIC [1] is on record?
The MIC was 50 µg/mL.

What about the MIC [2] of the same substance?
The MIC was 12.5 µg/mL.

What about the MIC [3] of the same substance?
Its MIC is 12.5 µg/mL.

What about the MIC [4] of the same substance?
The MIC was 12.5 µg/mL.

And the MIC [5]?
Its MIC is 12.5 µg/mL.

And the MIC [6]?
Its MIC is 12.5 µg/mL.

What about the MIC [7] of the same substance?
Its MIC is 12.5 µg/mL.

And the MIC [8]?
The MIC was 12.5 µg/mL.

What about the MIC [9] of the same substance?
The MIC was 50 µg/mL.

And the MIC [10]?
Its MIC is 12.5 µg/mL.

What about the MIC [11] of the same substance?
The MIC was 50 µg/mL.

How did the MIC [1] turn out when “PRT1013 (LEDPCPPSFCSKRGRCHIQASGRPQCSCMPGWTGEQCQ; listed as Homo sapiens)” was run?
The MIC was 12.5 µg/mL.

And the MIC [2]?
The MIC was 12.5 µg/mL.

And the MIC [3]?
Its MIC is 12.5 µg/mL.

And the MIC [4]?
The MIC was 25 µg/mL.

What about the MIC [5] of the same substance?
The MIC was 12.5 µg/mL.

What about the MIC [6] of the same substance?
Its MIC is 12.5 µg/mL.

And the MIC [7]?
Its MIC is 12.5 µg/mL.

And the MIC [8]?
The MIC was 25 µg/mL.

What about the MIC [9] of the same substance?
The MIC was 12.5 µg/mL.

And the MIC [10]?
Its MIC is 25 µg/mL.

What about the MIC [11] of the same substance?
Its MIC is 50 µg/mL.

Which MIC [1] does the source give for “PRT1381 (GMRSCPRGCSQRGRCENGRCVCNPGYTGEDC; listed as Homo sapiens)” here?
The MIC was 12.5 µg/mL.

What about the “MIC against E. coli BL21” value ([2]; 5×10^5 CFU/mL) of the same substance?
Its value is 25 µg/mL.

What about the “MIC against P. aeruginosa” value ([3]; 5×10^5 CFU/mL) of the same substance?
The value was 50 µg/mL.

And the “MIC against K. pneumonia” value ([4]; 5×10^5 CFU/mL)?
Its value is 25 µg/mL.

And the “MIC against E. cloacae” value ([5]; 5×10^5 CFU/mL)?
Its value is 12.5 µg/mL.

What about the “MIC against A. hydrophila” value ([6]; 5×10^5 CFU/mL) of the same substance?
The value was 50 µg/mL.

And the “MIC against C. diversus” value ([7]; 5×10^5 CFU/mL)?
Its value is 25 µg/mL.

And the “MIC against M. catarrhalis” value ([8]; 5×10^5 CFU/mL)?
Its value is 12.5 µg/mL.

And the “MIC against P. mirabilis” value ([9]; 5×10^5 CFU/mL)?
Its value is 25 µg/mL.

What about the “MIC against P. vulgaris” value ([10]; 5×10^5 CFU/mL) of the same substance?
The value was 50 µg/mL.

What about the “MIC against S. marcescens” value ([11]; 5×10^5 CFU/mL) of the same substance?
The value was 25 µg/mL.

With “PRT417 (DVNECQRYPGRLCGHKCENTLGSYLCSCSVGFRLSVDGRSCE; listed as Homo sapiens)” as the substance, how does the MIC [1] read?
The MIC was 25 µg/mL.

And the MIC ([2]; 5×10^5 CFU/mL)?
The MIC was 50 µg/mL.

And the MIC ([3]; 5×10^5 CFU/mL)?
The MIC was 25 µg/mL.

What about the MIC ([4]; 5×10^5 CFU/mL) of the same substance?
The MIC was 12.5 µg/mL.

And the MIC ([5]; 5×10^5 CFU/mL)?
Its MIC is 25 µg/mL.

And the MIC ([6]; 5×10^5 CFU/mL)?
Its MIC is 12.5 µg/mL.

What about the MIC ([7]; 5×10^5 CFU/mL) of the same substance?
Its MIC is 25 µg/mL.

What about the MIC ([8]; 5×10^5 CFU/mL) of the same substance?
Its MIC is 12.5 µg/mL.

What about the MIC ([9]; 5×10^5 CFU/mL) of the same substance?
Its MIC is 12.5 µg/mL.

And the MIC ([10]; 5×10^5 CFU/mL)?
The MIC was 12.5 µg/mL.

What about the MIC ([11]; 5×10^5 CFU/mL) of the same substance?
Its MIC is 12.5 µg/mL.
